According to ChEMBL document CHEMBL2375296, “BCR-ABL tyrosine kinase inhibitor pharmacophore model derived from a series of phenylaminopyrimidine-based (PAP) derivatives” (Bioorg Med Chem Lett, 2013):

Biological target: Bcr/Abl fusion protein (Homo sapiens, UniProt P00519)
Test: Inhibition of BCR-ABL kinase (unknown origin)
Type: protein assay

Sequence of Bcr/Abl fusion protein (P00519 whole entry, the tested form may be a part): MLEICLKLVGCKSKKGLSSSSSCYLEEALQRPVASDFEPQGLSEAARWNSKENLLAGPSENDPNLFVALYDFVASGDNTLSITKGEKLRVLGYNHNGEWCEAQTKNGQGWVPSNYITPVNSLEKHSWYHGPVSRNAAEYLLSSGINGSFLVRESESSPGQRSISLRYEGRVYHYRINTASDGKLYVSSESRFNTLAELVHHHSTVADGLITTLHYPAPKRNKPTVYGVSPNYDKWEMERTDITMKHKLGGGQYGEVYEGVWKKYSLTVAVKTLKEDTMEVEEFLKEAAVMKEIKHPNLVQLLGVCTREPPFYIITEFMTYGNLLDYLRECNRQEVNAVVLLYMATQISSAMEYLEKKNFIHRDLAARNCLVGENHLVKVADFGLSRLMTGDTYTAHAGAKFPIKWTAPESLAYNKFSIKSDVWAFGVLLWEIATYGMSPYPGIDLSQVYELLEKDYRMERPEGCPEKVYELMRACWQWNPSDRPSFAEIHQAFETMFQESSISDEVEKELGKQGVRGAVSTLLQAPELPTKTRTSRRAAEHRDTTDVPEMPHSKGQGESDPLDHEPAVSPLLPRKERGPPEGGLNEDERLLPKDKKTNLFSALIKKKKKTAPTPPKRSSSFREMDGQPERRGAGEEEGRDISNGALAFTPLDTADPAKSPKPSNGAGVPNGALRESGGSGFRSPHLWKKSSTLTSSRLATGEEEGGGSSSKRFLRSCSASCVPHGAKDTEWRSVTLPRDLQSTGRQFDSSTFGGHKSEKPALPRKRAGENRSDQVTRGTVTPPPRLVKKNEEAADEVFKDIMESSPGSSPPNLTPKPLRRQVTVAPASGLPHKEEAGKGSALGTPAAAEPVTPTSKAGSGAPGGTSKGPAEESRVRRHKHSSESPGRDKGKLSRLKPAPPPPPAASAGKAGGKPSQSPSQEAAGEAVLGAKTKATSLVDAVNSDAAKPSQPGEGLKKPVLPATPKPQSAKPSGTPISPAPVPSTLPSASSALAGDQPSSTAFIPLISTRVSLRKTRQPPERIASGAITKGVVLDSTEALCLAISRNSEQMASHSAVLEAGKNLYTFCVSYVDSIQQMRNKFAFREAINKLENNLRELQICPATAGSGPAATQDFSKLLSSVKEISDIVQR
Sequence of Bcr/Abl fusion protein (P11274 whole entry, further chain, the tested form may be a part): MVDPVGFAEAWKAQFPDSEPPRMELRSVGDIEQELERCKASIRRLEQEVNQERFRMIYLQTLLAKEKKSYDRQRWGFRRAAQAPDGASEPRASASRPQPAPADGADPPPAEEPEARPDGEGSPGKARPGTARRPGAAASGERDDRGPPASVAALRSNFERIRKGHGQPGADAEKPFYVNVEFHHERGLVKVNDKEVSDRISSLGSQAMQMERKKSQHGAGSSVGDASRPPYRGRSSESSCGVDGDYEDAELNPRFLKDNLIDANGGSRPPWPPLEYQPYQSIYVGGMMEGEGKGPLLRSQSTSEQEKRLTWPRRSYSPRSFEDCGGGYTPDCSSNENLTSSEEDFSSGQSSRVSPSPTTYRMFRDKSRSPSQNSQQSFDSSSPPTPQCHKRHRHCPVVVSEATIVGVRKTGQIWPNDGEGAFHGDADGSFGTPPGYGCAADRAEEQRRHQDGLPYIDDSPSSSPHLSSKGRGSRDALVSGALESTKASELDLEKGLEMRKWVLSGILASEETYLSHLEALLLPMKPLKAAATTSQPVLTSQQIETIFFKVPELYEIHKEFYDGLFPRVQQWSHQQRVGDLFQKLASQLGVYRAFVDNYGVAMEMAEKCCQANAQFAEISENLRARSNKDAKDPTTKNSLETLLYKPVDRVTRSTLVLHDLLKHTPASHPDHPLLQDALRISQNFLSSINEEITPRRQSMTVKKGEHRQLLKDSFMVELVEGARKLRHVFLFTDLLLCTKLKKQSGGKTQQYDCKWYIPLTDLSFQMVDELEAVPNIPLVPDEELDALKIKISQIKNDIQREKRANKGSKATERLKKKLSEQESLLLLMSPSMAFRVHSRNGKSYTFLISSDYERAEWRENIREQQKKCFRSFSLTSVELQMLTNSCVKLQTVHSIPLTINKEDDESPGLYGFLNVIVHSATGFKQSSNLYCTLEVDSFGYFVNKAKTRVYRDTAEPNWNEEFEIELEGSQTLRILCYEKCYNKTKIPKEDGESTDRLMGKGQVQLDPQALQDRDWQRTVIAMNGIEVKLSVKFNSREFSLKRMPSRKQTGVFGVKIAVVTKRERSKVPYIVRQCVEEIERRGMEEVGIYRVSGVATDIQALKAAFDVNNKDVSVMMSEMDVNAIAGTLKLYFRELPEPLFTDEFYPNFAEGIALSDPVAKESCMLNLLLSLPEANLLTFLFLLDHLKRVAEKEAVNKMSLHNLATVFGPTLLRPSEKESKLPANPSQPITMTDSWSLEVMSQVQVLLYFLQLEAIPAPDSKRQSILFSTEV

Q: How did the IC50 turn out when `Cc1ccc(NC(=O)c2ccccc2)cc1Nc1nccc(-c2cccnc2)n1` was run?
A: The IC50 was 398 nM.

Q: With `Cc1ccc(NC(=O)c2ccc(CN3CCN(C)CC3)c(I)c2)cc1Nc1nccc(-c2cccnc2)n1` as the molecule, how does the IC50 read?
A: Its IC50 is 10 nM.

Q: How did the IC50 turn out when `CCN(CC)c1cccc(NC(=O)Nc2ccc(C)c(Nc3nccc(-c4cccnc4)n3)c2)c1` was run?
A: Its IC50 is 1000 nM.

Q: Which IC50 does the source give for `NCCCn1ccc2c(-c3ccnc(Nc4cccc(OC(F)(F)C(F)F)c4)n3)cccc21` here?
A: Its IC50 is 347 nM.

Q: With `N#Cc1ccc(C(=O)Nc2cccc(Nc3nccc(-c4cccnc4)n3)c2)cc1` as the molecule, how does the IC50 read?
A: Its IC50 is 1290 nM.

Q: For `Cc1ccc(NC(=O)N2CCN(C)CC2)cc1Nc1nccc(-c2cccnc2)n1`, which IC50 is on record?
A: The IC50 was 5010 nM.

Q: `Cc1ccc(NC(=O)Nc2ccc(N(C)C)cc2)cc1Nc1nccc(-c2cccnc2)n1` was tested. Which IC50 did it give?
A: Its IC50 is 10000 nM.

Q: How did the IC50 turn out when `COc1ccccc1C(=O)Nc1cccc(Nc2nccc(-c3cccnc3)n2)c1` was run?
A: The IC50 was 1910 nM.

Q: Which IC50 does the source give for `Cc1ccc(NC(=O)c2ccc(CN3CC(N(C)C)C3)c(C(F)(F)F)c2)cc1Nc1nccc(-c2cncnc2)n1` here?
A: The IC50 was 17 nM.

Q: `O=C(Nc1cccc(Nc2nccc(-c3cccnc3)n2)c1)c1ccccn1` was tested. Which IC50 did it give?
A: Its IC50 is 3800 nM.

Q: With `O=C(Nc1cccc(Nc2nccc(-c3cccnc3)n2)c1)c1ccc(F)cc1` as the molecule, how does the IC50 read?
A: The IC50 was 200 nM.

Q: Which IC50 does the source give for `O=[N+]([O-])c1cccc(Nc2nccc(-c3ccccn3)n2)c1` here?
A: Its IC50 is 1200 nM.

Q: Which IC50 does the source give for `CCN(CC)c1ccc(NC(=O)Nc2ccc(C)c(Nc3nccc(-c4cccnc4)n3)c2)cc1` here?
A: The IC50 was 10000 nM.

Q: With `O=C(O)c1ccccc1C(=O)Nc1cccc(Nc2nccc(-c3cccnc3)n2)c1` as the molecule, how does the IC50 read?
A: Its IC50 is 2000 nM.

Q: For `Cc1ccc(NC(=O)c2ccc(/N=N/N(C)C)cc2)cc1Nc1nccc(-c2cccnc2)n1`, which IC50 is on record?
A: Its IC50 is 2190 nM.

Q: How did the IC50 turn out when `COC(=O)c1cccc(Nc2nccc(-c3cccnc3)n2)c1` was run?
A: Its IC50 is 5130 nM.

Q: Which IC50 does the source give for `c1cc(Nc2nccc(-c3cccnc3)n2)cc(OCCn2ccnc2)c1` here?
A: The IC50 was 1000 nM.

Q: `Cc1ccc(NC(=O)c2ccc3ccccc3c2)cc1Nc1nccc(-c2cccnc2)n1` was tested. Which IC50 did it give?
A: Its IC50 is 200 nM.

Q: With `Cc1ccc(NC(=O)c2ccc(N)cc2)cc1Nc1nccc(-c2cccnc2)n1` as the molecule, how does the IC50 read?
A: The IC50 was 67600 nM.

Q: How did the IC50 turn out when `Cc1ccc(NC(=O)c2ccc(/N=N/N(C)CCCl)cc2)cc1Nc1nccc(-c2cccnc2)n1` was run?
A: The IC50 was 17400 nM.

Q: Which IC50 does the source give for `O=[N+]([O-])c1cccc(Nc2nccc(-c3ccncc3)n2)c1` here?
A: The IC50 was 61700 nM.

Q: With `NCCCCNC(=O)c1cccc(Nc2nccc(-c3cccnc3)n2)c1` as the molecule, how does the IC50 read?
A: The IC50 was 398 nM.

Q: With `O=C(Nc1cccc(Nc2nccc(-c3cccnc3)n2)c1)c1ccccc1` as the molecule, how does the IC50 read?
A: Its IC50 is 398 nM.

Q: How did the IC50 turn out when `Cc1ccc(NC(=O)c2ccc(CN3CCN(C)CC3)c(Cl)c2)cc1Nc1nccc(-c2cccnc2)n1` was run?
A: Its IC50 is 10 nM.

Q: With `O=C(O)c1cccc(Nc2nccc(-c3cccnc3)n2)c1` as the molecule, how does the IC50 read?
A: Its IC50 is 7940 nM.

Q: Which IC50 does the source give for `Cc1ccc(NC(=O)NCCN2CCCC2)cc1Nc1nccc(-c2cccnc2)n1` here?
A: Its IC50 is 8910 nM.

Q: Which IC50 does the source give for `O=C(Nc1cccc(Nc2nccc(-c3cccnc3)n2)c1)C1CCCCC1` here?
A: Its IC50 is 447 nM.

Q: Which IC50 does the source give for `O=C(Nc1cccc(Nc2nccc(-c3cccnc3)n2)c1)c1ccncc1` here?
A: Its IC50 is 501 nM.

Q: For `CCCCCCC(=O)Nc1cccc(Nc2nccc(-c3cccnc3)n2)c1`, which IC50 is on record?
A: Its IC50 is 200 nM.

Q: `FC(F)C(F)(F)Oc1cccc(Nc2nccc(-c3c[nH]c4ccccc34)n2)c1` was tested. Which IC50 did it give?
A: The IC50 was 372 nM.

Q: `COCCN/N=N/c1cccc(Nc2cc(-c3cccnc3)ncn2)c1` was tested. Which IC50 did it give?
A: Its IC50 is 5370 nM.

Q: How did the IC50 turn out when `O=C(Nc1cccc(Nc2nccc(-c3cccnc3)n2)c1)C1=CC=CCC1=S` was run?
A: The IC50 was 302 nM.

Q: Which IC50 does the source give for `Cc1ccc(C(=O)Nc2cccc(Nc3nccc(-c4cccnc4)n3)c2)cc1` here?
A: Its IC50 is 1000 nM.

Q: For `CCC(=O)Nc1ccc(Sc2nc(Nc3cc(C)[nH]n3)cc(N3CCN(C)CC3)n2)cc1`, which IC50 is on record?
A: The IC50 was 603 nM.

Q: Which IC50 does the source give for `Cc1cccc(Nc2nccc(-c3cccnc3)n2)c1` here?
A: Its IC50 is 1820 nM.

Q: `c1cc(CCN2CCOCC2)cc(Nc2nccc(-c3cccnc3)n2)c1` was tested. Which IC50 did it give?
A: The IC50 was 10000 nM.

Q: `Nc1ccc(C(=O)Nc2cccc(Nc3nccc(-c4cccnc4)n3)c2)cc1` was tested. Which IC50 did it give?
A: Its IC50 is 9770 nM.

Q: Which IC50 does the source give for `Cc1ccc(NC(=O)c2ccc(CN3CCC(CN(C)C)C3)c(C(F)(F)F)c2)cc1Nc1nccc(-c2cncnc2)n1` (stereo not drawn) here?
A: The IC50 was 11 nM.

Q: With `Cc1ccc(NC(=O)c2ccc(Cl)cc2)cc1Nc1nccc(-c2cccnc2)n1` as the molecule, how does the IC50 read?
A: Its IC50 is 794 nM.

Q: With `CN1CCN(c2ccc(C(=O)Nc3[nH]nc4c3CN(C(=O)Cc3cccs3)C4)cc2)CC1` as the molecule, how does the IC50 read?
A: Its IC50 is 64.6 nM.

Q: With `O=[N+]([O-])c1cccc(Nc2nccc(-c3cccnc3)n2)c1` as the molecule, how does the IC50 read?
A: Its IC50 is 33900 nM.

Q: How did the IC50 turn out when `c1cncc(-c2ccnc(Nc3cccc(-n4ccnc4)c3)n2)c1` was run?
A: The IC50 was 3310 nM.

Q: With `Cc1ccc(N)cc1Nc1nccc(-c2cccnc2)n1` as the molecule, how does the IC50 read?
A: Its IC50 is 1510 nM.

Q: `CC(C)(NC(=O)c1cc2c(NC(=O)c3ccc(CN4CCCCC4)cc3)n[nH]c2s1)c1ccccc1` was tested. Which IC50 did it give?
A: Its IC50 is 20.9 nM.

Q: How did the IC50 turn out when `Clc1cccc(Nc2nccc(-c3cccnc3)n2)c1` was run?
A: Its IC50 is 1510 nM.

Q: `O=C(Nc1cccc(Nc2nccc(-c3cccnc3)n2)c1)c1cccnc1` was tested. Which IC50 did it give?
A: Its IC50 is 151 nM.

Q: With `Cc1ccc(-c2ccnc(Nc3cccc(OC(F)(F)C(F)F)c3)n2)cc1` as the molecule, how does the IC50 read?
A: Its IC50 is 50100 nM.

Q: How did the IC50 turn out when `FC(F)C(F)(F)Oc1cccc(Nc2nccc(-c3ccncc3)n2)c1` was run?
A: The IC50 was 100000 nM.

Q: For `Cc1ccc(NC(=O)NCc2cccc(Cl)c2)cc1Nc1nccc(-c2cccnc2)n1`, which IC50 is on record?
A: The IC50 was 1000 nM.

Q: How did the IC50 turn out when `Nc1cccc(Nc2nccc(-c3cccnc3)n2)c1` was run?
A: The IC50 was 708 nM.

Q: With `Cc1ccc(NC(=O)c2ccc(CN3CCC(N(C)C)C3)c(C(F)(F)F)c2)cc1Nc1nccc(-c2cncnc2)n1` (stereo not drawn) as the molecule, how does the IC50 read?
A: Its IC50 is 3.98 nM.

Q: For `CN1CCN(c2ccc(C(=O)Nc3n[nH]c4sc(C(=O)NC(C)(C)c5ccccc5)cc34)cc2)CC1`, which IC50 is on record?
A: Its IC50 is 4.07 nM.

Q: With `COCCN(C)/N=N/c1ccc(C(=O)Nc2cccc(Nc3nccc(-c4cccnc4)n3)c2)cc1` as the molecule, how does the IC50 read?
A: Its IC50 is 33200 nM.

Q: With `CC(=O)Nc1ccc(C)c(Nc2nccc(-c3cccnc3)n2)c1` as the molecule, how does the IC50 read?
A: Its IC50 is 5750 nM.

Q: For `CN1CCN(Cc2ccc(C(=O)Nc3cccc(Nc4nccc(-c5cccnc5)n4)c3)cc2)CC1`, which IC50 is on record?
A: The IC50 was 100 nM.

Q: How did the IC50 turn out when `Cc1ccc(NC(=O)Nc2cccc(N(C)C)c2)cc1Nc1nccc(-c2cccnc2)n1` was run?
A: Its IC50 is 575 nM.

Q: For `COc1ccccc1C(=O)Nc1ccc(C)c(Nc2nccc(-c3cccnc3)n2)c1`, which IC50 is on record?
A: Its IC50 is 794 nM.

Q: How did the IC50 turn out when `Nc1cccc(Nc2nccc(-c3ccncc3)n2)c1` was run?
A: Its IC50 is 603 nM.
